{"source": "patent US10703821B2", "about": "“Method for stimulating or enhancing proliferation of cells by activating the mucin 1 (MUC1) receptor” (MINERVA BIOTECHNOLOGIES CORPORATION, priority 2005, dated 2020)", "tested_on": "PSMGFR region of MUC1", "test": "western blot of ERK2 phosphorylation, competition with anti-PSMGFR", "assay_type": "cell-based", "source_text": "FIG. 6 is a western blot of a competition experiment in which small molecules that bind to the PSMGFR region of MUC1 compete with anti-PSMGFR for binding to the site. […] The chemical formula for the competitor compound MN 9 referred to in this figure is […]", "data": [{"smiles": "O=C(c1ccc2ccccc2c1)N1CCc2c([nH]c3ccccc23)C1c1ccc(C(F)(F)F)cc1", "note": "(centres unmarked) [MN 9]", "values": [{"measurement": "binding of anti-PSMGFR to the PSMGFR site in competition", "setting": "in the presence of competitor small molecule", "result": "the antibody does not bind"}, {"measurement": "ERK2 phosphorylation", "setting": "in the presence of competitor small molecule and anti-PSMGFR", "result": "ERK2 phosphorylation is inhibited"}]}]}
